Test results reported in patent publication US9844572B2, “Promotion of neuronal integration in neural stem cell grafts” (Life & Brain GmbH, priority 2009, dated 2017).

Columns and labels:
lt-hESNSC [1] = assay: BrdU cell proliferation assay; format: cell-based, human; details: BIBF1120 2 μg/ml for 20 h; BrdU 2.5 h
Method: (§1) FIG. 9 The effect of BIBF1120 on lt-hESNSC proliferation and differentiation. The proliferative effect was measured in a BrdU proliferation assay of lt-hESNSC, either with or without BIBF1120 (a). Bars represent the percentage of BrdU positive cells, cultured for 20 hours in NSC-medium or in NSC-medium with BIBF1120 (2 μg/ml) and treated for 2.5 h with BrdU. The neurogenic effect of BIBF1120 on lt-hESNSC was studied (b). Bars represent the percentage of βIII tubulin-positive neurons in lt-hESNSC cultured for 10 days in neuronal generation medium or in neuronal generation medium with BIBF1120 (2 μg/ml).
For BrdU staining (FIG. 6A) 0.5% Triton X-100 in PBS was used for permeabilizing the cells. After washing, cells were incubated with 2 M HCl for 10 minutes, washed in PBS, equilibrated using 0.1 M borate buffer, washed again in PBS, followed by an incubation with the primary antibody diluted in blocking solution at room temperature over night. Staining with the secondary antibody was performed as described.
5′-bromo-T-deoxyuridine (BrdU) is a thymidine analog that incorporates into dividing cells during DNA synthesis. To determine whether BIBF1120 has an influence on the proliferation rate of lt-hESNSC, cells were cultured under neural proliferation medium with or without BIBF1120 (2 μg/ml) for 20 h. BrdU was added to the culture medium for 2.5 h. […]

human Neurons = assay: Dunn chamber migration assay (chemotaxis of immature neurons); format: cell-based; details: BIBF1120 (2 μg), 6 h recording; for chemotactic response of human neurons towards FGF2 gradient in presence of inhibitor: FGF2 200 ng/ml in outer well; for chemotactic response of human neurons towards VEGF gradient in presence of inhibitor: VEGF 200 ng/ml in outer well
Method: FIG. 7A Dunn chamber migration assay. Schematic representation of a direct-viewing Dunn chemotaxis chamber showing the position of the inner well, the bridge, the outer well and the overlying coverslip (a) (Zicha et al., 1991 1998, Zhang et al., 2003). Adopted from Hawksley. Calculation of the forward migration index (FMI) during a 6 h recording period. FMI values can be either positive or negative, depending on the direction in which the cell is migrating (b).
FIG. 7B Directionality analysis of cell movement using scatter plots of cell displacement (c-i). The diagrams orientate such that the position of the outer well of the chamber are vertical (y direction). Each point represents the final position of a cell at the end of the recording period of 6-h; the starting point of migration is fixed at the intersection of the two axes. As control migration of human neurons was monitored in medium only (c). For assessing chemokinesis, equal amounts of FGF2 (d) or VEGF (e) were added to both the outer and the inner wells of the chamber. Chemotaxis was tested by placing FGF2 (f) or VEGF (g) in the outer well only. Migration of human neurons treated with BFBF1120 was monitored towards a FGF2 (h) and VEGF (i) gradient.
Chemotaxis of immature neurons was directly viewed and recorded in stable concentration gradients of FGF2 (200 ng/ml) or VEGF (200 ng/ml), respectively, with or without the addition of BIBF1120 ([…]) using a Dunn chemotaxis chamber (Allen et al., 1998 1998, Zhang et al., 2003). This device is made from a Helber bacteria counting chamber by grinding a circular well in the central platform to leave a 1 mm-wide annular bridge between the inner and the outer well. Chemoattractants added to the outer well of the chamber will diffuse across the bridge to the inner well and form a linear steady gradient within ˜30 min after loading the chamber (Zicha et al., 1991; Webb et al., 1996). To study chemotaxis, the outer well of the Dunn chamber can be filled with medium containing a chemoattractant, whereas the concentric inner well is filled with medium only. Coverslips carrying the cultured cells are inverted and placed onto the chamber. Cell locomotion is recorded through the annular bridge between the concentric inner and outer well. For assessing chemokinesis, the outer and inner wells are filled with equal concentrations of the chemoattractant. A period of 6 h was chosen to assess cell migration.
To determine the efficiency of forward migration during the 6 h recording period, the FMI was calculated as the ratio of forward progress to the total path length (Foxman et al., 1999; Zhang et al.).

[2] = test system: mitogen-activated protein kinase (MAPK) and Akt signalling pathways; details: after 1-hour treatment; cell culture; cited from earlier work
[3] = test system: lt-hESNSC mixed with immature neurons on hippocampal rat slice cultures; assay: Transplantation onto rat hippocampal slice cultures (migration of human neurons from mixed grafts); format: cell-based; details: 2 μg/ml BIBF1120, day 7
Method: Using a vibroslicer, 400 μm horizontal sections were generated from the hippocampus of 9-10 day-old Wistar rats. The slices included the dentate gyrus and the entorhinal and temporal cortex (Scheffler et al., 2003; Opitz et al., 2007). They were transferred onto a polyester membrane and cultivated at 35° C., 5% CO2 and saturated air humidity in an initial culture medium containing 25% normal horse serum, which was gradually replaced after 3-5 days by chemically defined, serum-free culture medium based on DMEM/F12, N2 supplement and B27 supplement. Medium was changed every other day and 5-7 days after explantation a cell suspension of 50 000 cells in a 1 μl volume was spotted onto the entorhinal cortex of the slice using an injection device.
For immunohistochemical analysis of slice cultures (FIG. 4), cultures were fixed in 4% paraformaldehyde for 4 hours and subsequently washed several times with PBS. Slices were permeabilized/blocked with 0.1% Triton X-100+10% FCS for 6 hours at 25° C. Incubation with primary antibody was for 16 hours at room temperature, followed by washing steps with PBS for 5 hours. Incubation with the secondary antibodies was for 2 hours at room temperature.
To further investigate whether endostatin can also interfere with the chemoattractive effect of neural stem/progenitor cells on immature neurons in a context closer to an in vivo situation, hippocampal rat slice culture experiments were performed. HES-NSC70+N30 were pre-incubated for 30 minutes in 30 μl Cytocon™-Buffer II with either 2 μl stock solution endostatin (n=9) or with 2 μl of the solvent of endostatin (citric-phosphate buffer) as control (n=9), and then deposited on the entorhinal cortex of hippocampal slice cultures. Cultures of pure human neurons were transplanted as positive control (n=9). The slices were further cultured for 18 days after deposition of the cells. 1 μl/ml endostatin stock solution was continuously applied every day to the slice media.
To further investigate whether BIBF1120 can also interfere with the chemoattractive effect of neural stem/progenitor cells on immature neurons, hippocampal rat slice culture experiments were performed. Lt-hESNSC mixed with purified DCX-EGFP positive neurons (30.0000 lt-hESNSC mixed with 100.000 purified neurons per μl) were pre-incubated for 30 min. in Cytocon™-Buffer II with or without 2 μg/ml BIBF1120, respectively, and then deposited on the entorhinal cortex (EC) of hippocampal slice cultures. The slices were further cultured for 7 days after deposition of the cells. 2 μg/ml BIBF1120 was continuously applied every day to the slice media.

lt-hESNSC [4] = assay: Neurogenesis assay (differentiation in neuronal generation medium); format: cell-based, human; details: 10 days in neuronal generation medium with BIBF1120 (2 μg/ml)
Method: as §1
Differentiation was studied by a neurogenesis assay. In this assay lt-hESNSC were cultured for 10 days in neuronal generation medium or in neuronal generation medium with BIBF1120 (2 μg/ml), fixed and stained for […].

With COC(=O)c1ccc2c(c1)NC(=O)/C2=C(\Nc1ccc(N(C)C(=O)CN2CCN(C)CC2)cc1)c1ccccc1 [BIBF1120, 3-Z-[1-(4-(N-((4-methyl-piperazin-1-yl)-methylcarbonyl)-N-methyl-amino)-anilino)-1-phenyl-methylene]-6-methoxycarbonyl-2-indolinone] the “proliferation rate (BrdU positive cells) vs untreated control” value (lt-hESNSC [1]) was “no significant difference”, the “chemotactic response of human neurons towards FGF2 gradient in presence of inhibitor” value (human Neurons) was “lost their chemotactic response” and the “chemotactic response of human neurons towards FGF2 gradient in presence of inhibitor” value (human Neurons; listed as BFBF1120) was “loose this chemotactic response”. The “chemotactic response of human neurons towards VEGF gradient in presence of inhibitor” value (human Neurons) was “lost their chemotactic response”, the “chemotactic response of human neurons towards VEGF gradient in presence of inhibitor” value (human Neurons; listed as BFBF1120) was “loose this chemotactic response” and the “duration of sustained pathway inhibition” value [2] was “up to 32 hours”. The “migration along the z-axis” value [3] was “easily migrated throughout the entire slice tissue”, the “total number of human neurons within 10 μm thick optical plane, bottom of the slice” value [3] was 14±7.8 and the “total number of human neurons within 10 μm thick optical plane, middle of the slice” value [3] was 14.6±6.1. The “number of neurons migrated beyond a 250 μm perimeter around the deposition site, increase vs control” value ([3]; xy-axis) was “two-fold increase”, the “migration horizontally over the slice compared to control population” value ([3]; lt-hESNSC mixed with purified neurons) was “enhanced migration and integration capacity” and the “differentiation (βIII tubulin-positive neurons)” value (lt-hESNSC [4]) was “not significantly influenced”.
